According to EP0317956A2, “Anti-tumor prodrugs” (Bristol-Myers Squibb Company, priority 1987, dated 1989):

Assays:
P388 leukemia = assay: In vivo tumor test, i.p. implanted P388 leukemia; parameters: species or system mice; settings: for Optimum Dose: P388, 10⁶ ascites cells i.p., single i.p. injection of drug, day 1; for Maximum Effect T/C: P388, T/C = median survival time (treated/control) X 100, single i.p. injection day 1, 30 days
Experimental: (§1) The in vivo tumor tests were performed utilizing methods described in detail in a previous publication (8). The lymphatic leukemias P-388 and L-1210 were used for initial testing of mitomycin and daunomycin derivatives respectively. Selected compounds were tested against subcutaneouly implanted B16 melanoma with treatment administered intravenously. Experimental parameters are shown in the footnotes of the accompanying tables.
(§2) Three murine tumor models were used to evaluate the in-vivo activities of the drugs.

B16 melanoma = assay: In vivo tumor test, subcutaneously implanted B16 melanoma; parameters: species or system mice; settings: for Optimum Dose / Maximum Effect T/C: B16 melanoma s.c., three i.v. injections, days 1, 5 and 9; for Maximum Effect T/C: 60 days; for antitumor activity: subcutaneously implanted B16 melanoma, i.v. days 1, 5 and 9
Experimental: as §1
Some of the MMC and MMA derivatives were tested for activity against subcutaneously implanted B16 melanoma. In these experiments, the drugs were administered i.v. on days 1,5 and 9 after implantation of the tumor. The cleavable MMC prodrugs, 20 and 21, were about as active as MMC. […] The cleavable prodrugs, 24 - 27, were as active as MMA, with 24 showing slightly greater activity.

L1210 leukemia = assay: In vivo tumor test, i.p. implanted L1210 leukemia; parameters: species or system mice; settings: for Optimum Dose: L1210, 10⁶ ascites cells i.p., single i.p. injection of drug, day 1; for in-vivo activity: L1210, optimal i.p. dose; for Maximum Effect T/C: L1210, T/C = median survival time (treated/control) X 100, single i.p. injection day 1, 30 days
Experimental: as §1, §2

[1] = Model study: stability and dithiothreitol-induced fragmentation of model benzyl carbamate disulfide; format: physicochemical
Text: In order to establish that benzyl carbamates with suitably positioned disulfide substituents would undergo fragmentation of the carbamate upon disulfide reduction, model studies were undertaken using p-nitroaniline as a leaving group. The synthesis of the model benzyl carbamate 12 is depicted in Figure 1.
The course of reaction was monitored by uv/vis spectroscopy, in which 14 (λ max 371 nm) was easily distinguished from the starting material 12 (λ max 313nm). […] It was also observed that the release of 14 was slightly faster at 37°C than at room temperature.

With `COC1=C(C)C(=O)C2=C(C1=O)[C@@H](COC(N)=O)[C@@]1(OC)[C@H]3N[C@H]3CN21` [Compound 22, mitomycin A, reference compound] the “Optimum Dose” value (P388 leukemia) was 3.2 mg/kg, the “Maximum Effect T/C” value (P388 leukemia) was 180 and the “Optimum Dose” value (B16 melanoma) was 0.4 mg/kg/inj. For the same compound, the “Maximum Effect T/C” value (B16 melanoma) was 182.

In the case of “MMA Benzyl Carbamate Disulfide [Compound 26]”, the “Optimum Dose” value (P388 leukemia) is reported as 3.2 mg/kg, the “Maximum Effect T/C” value (P388 leukemia) is reported as 163 and the “Optimum Dose” value (B16 melanoma) is reported as 3.2 mg/kg/inj. The “Maximum Effect T/C” value (B16 melanoma) was 182.

With “DAU Benzyl Carbamate Disulfide [Compound 30]” the “Optimum Dose” value (L1210 leukemia) was 3.0 mg/kg, the “in-vivo activity” value (L1210 leukemia) was “inactive” and the “Maximum Effect T/C” value (L1210 leukemia) was 100.

For `COc1cccc2c1C(=O)c1c(O)c3c(c(O)c1C2=O)C[C@@](O)(C(C)=O)C[C@@H]3O[C@H]1C[C@H](NC(=O)OCc2ccccc2)[C@H](O)[C@H](C)O1` [Compound 29, DAU Benzyl Carbamate], the “Optimum Dose” value (L1210 leukemia) was 9.0 mg/kg, the “in-vivo activity” value (L1210 leukemia) was “inactive” and the “Maximum Effect T/C” value (L1210 leukemia) was 100.

In the case of `CO[C@@]12[C@H](COC(N)=O)C3=C(C(=O)C(C)=C(N)C3=O)N1C[C@H]1[C@@H]2N1C(=O)OCc1ccccc1SSc1ccccn1` [Compound 18, MMC Benzyl Carbamate Disulfide], the “Optimum Dose” value (P388 leukemia) is reported as 51.2 mg/kg and the “Maximum Effect T/C” value (P388 leukemia) is reported as 195.

In the case of “MMC Benzyl Carbamate Disulfide [Compound 21]”, the “Optimum Dose” value (P388 leukemia) is reported as 12.8 mg/kg, the “Maximum Effect T/C” value (P388 leukemia) is reported as 222 and the “Optimum Dose” value (B16 melanoma) is reported as 6.4 mg/kg/inj. The “Maximum Effect T/C” value (B16 melanoma) was 123.

For “Benzyl Carbamate Disulfide [Compound 12]”, the “stability in buffered aqueous methanol” value ([1]; aqueous methanol buffered between pH 6 to 8, no reducing agent) was “stable for several days” and the “release of p-nitroaniline upon treatment with dithiothreitol” value ([1]; dithiothreitol, uv/vis and HPLC) was “p-nitroaniline was released”.

In the case of `CO[C@@]12[C@H](COC(N)=O)C3=C(C(=O)C(C)=C(N)C3=O)N1C[C@H]1[C@@H]2N1C(=O)OCc1ccc(SSc2ccccn2)cc1` [Compound 20, MMC Benzyl Carbamate Disulfide], the “Optimum Dose” value (P388 leukemia) is reported as 25.6 mg/kg, the “Maximum Effect T/C” value (P388 leukemia) is reported as 353 and the “Optimum Dose” value (B16 melanoma) is reported as 12.8 mg/kg/inj. The “Maximum Effect T/C” value (B16 melanoma) was 145.

In the case of “MMA Benzyl Carbamate Disulfide [Compound 25]”, the “Optimum Dose” value (P388 leukemia) is reported as 3.2 mg/kg, the “Maximum Effect T/C” value (P388 leukemia) is reported as 153 and the “Optimum Dose” value (B16 melanoma) is reported as 3.2 mg/kg/inj. The “Maximum Effect T/C” value (B16 melanoma) was 191.

For MMC Benzyl Carbamate [Compound 17], the “Optimum Dose” value (P388 leukemia) was 12.8 mg/kg, the “Maximum Effect T/C” value (P388 leukemia) was 144 and the “Optimum Dose” value (B16 melanoma) was 4.8 mg/kg/inj. The “Maximum Effect T/C” value (B16 melanoma) was 96 and the “antitumor activity” value (B16 melanoma) was “little activity”.

In the case of `COc1cccc2c1C(=O)c1c(O)c3c(c(O)c1C2=O)C[C@@](O)(C(C)=O)C[C@@H]3O[C@H]1C[C@H](N)[C@H](O)[C@H](C)O1` [Compound 28, daunomycin, reference compound], the “Optimum Dose” value (L1210 leukemia) is reported as 3.2 mg/kg and the “Maximum Effect T/C” value (L1210 leukemia) is reported as 154.

With “MMC Benzyl Carbamate Disulfide [Compound 19]” the “Optimum Dose” value (P388 leukemia) was 51.2 mg/kg and the “Maximum Effect T/C” value (P388 leukemia) was 185.

With “mitomycin C [Compound 16, reference compound]” the “Optimum Dose” value (P388 leukemia) was 3.2 mg/kg, the “Maximum Effect T/C” value (P388 leukemia) was 266 and the “Optimum Dose” value (B16 melanoma) was 3.0 mg/kg/inj. The “Maximum Effect T/C” value (B16 melanoma) was 143.

With “MMA Benzyl Carbamate Disulfide [Compound 23]” the “Optimum Dose” value (B16 melanoma) was 6.4 mg/kg/inj, the “Maximum Effect T/C” value (B16 melanoma) was 124 and the “antitumor activity” value (B16 melanoma) was “little activity”.

With “MMA Benzyl Carbamate Disulfide [Compound 27]” the “Optimum Dose” value (P388 leukemia) was 12.8 mg/kg, the “Maximum Effect T/C” value (P388 leukemia) was 163 and the “Optimum Dose” value (B16 melanoma) was 9.6 mg/kg/inj. The “Maximum Effect T/C” value (B16 melanoma) was 182.
